# According to PubChem BioAssay (NCI):
#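 Interpolation was linear, between the two tested concentrations surrounding the appropriate level; five concentrations were tested over 48 hours in 96-well plates. TGI denotes the concentration required for complete inhibition of growth.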
# Tested on: SK-MEL-2 melanoma
# Assay: growth of human tumour cells (NCI), 48 h
row,SMILES,TGI
1,CCOC(=O)c1csc(CCCCCCc2nc(C(=O)OCC)cs2)n1,> 100 µM
2,CN(C)c1[se]nc2c1c(=O)n(C)c(=O)n2C,> 100 µM

# Tested on: SK-MEL-28 melanoma
# Assay: growth of human tumour cells (NCI), 48 h
row,SMILES,TGI
1,CC1=C(C(=O)Nc2ccc([N+](=O)[O-])cc2)C(c2cccc([N+](=O)[O-])c2)C(C(=O)Nc2ccc([N+](=O)[O-])cc2)=C(C)N1,> 100 µM
2,COc1ccc2c(c1)C1C(CO2)C(c2ccccc2)=NN1c1ccccc1 (stereo unspecified),> 100 µM
3,CCOC(=O)c1csc(CCCCCCc2nc(C(=O)OCC)cs2)n1,> 83.8 µM
4,Sc1ccccc1S,> 100 µM
5,CN(C)c1[se]nc2c1c(=O)n(C)c(=O)n2C,> 100 µM

# Tested on: SK-MEL-5 melanoma
# Assay: growth of human tumour cells (NCI), 48 h
row,SMILES,TGI
1,COc1ccc2c(c1)C1C(CO2)C(c2ccccc2)=NN1c1ccccc1 (stereo unspecified),> 100 µM
2,CCOC(=O)c1csc(CCCCCCc2nc(C(=O)OCC)cs2)n1,> 100 µM
3,CN(C)c1[se]nc2c1c(=O)n(C)c(=O)n2C,> 100 µM

# Tested on: SK-OV-3 ovarian
# Assay: growth of human tumour cells (NCI), 48 h
row,SMILES,TGI
1,CC1=C(C(=O)Nc2ccc([N+](=O)[O-])cc2)C(c2cccc([N+](=O)[O-])c2)C(C(=O)Nc2ccc([N+](=O)[O-])cc2)=C(C)N1,71.6 µM
2,COc1ccc2c(c1)C1C(CO2)C(c2ccccc2)=NN1c1ccccc1 (stereo unspecified),> 100 µM
3,CCOC(=O)c1csc(CCCCCCc2nc(C(=O)OCC)cs2)n1,> 100 µM
4,Sc1ccccc1S,> 100 µM
5,CN(C)c1[se]nc2c1c(=O)n(C)c(=O)n2C,> 100 µM

# Tested on: SN12C renal
# Assay: growth of human tumour cells (NCI), 48 h
row,SMILES,TGI
1,CC1=C(C(=O)Nc2ccc([N+](=O)[O-])cc2)C(c2cccc([N+](=O)[O-])c2)C(C(=O)Nc2ccc([N+](=O)[O-])cc2)=C(C)N1,> 100 µM
2,CCOC(=O)c1csc(CCCCCCc2nc(C(=O)OCC)cs2)n1,> 100 µM
3,Sc1ccccc1S,> 100 µM
4,CN(C)c1[se]nc2c1c(=O)n(C)c(=O)n2C,> 100 µM

# Tested on: SNB-19 CNS
# Assay: growth of human tumour cells (NCI), 48 h
row,SMILES,TGI
1,CC1=C(C(=O)Nc2ccc([N+](=O)[O-])cc2)C(c2cccc([N+](=O)[O-])c2)C(C(=O)Nc2ccc([N+](=O)[O-])cc2)=C(C)N1,> 100 µM
2,CCOC(=O)c1csc(CCCCCCc2nc(C(=O)OCC)cs2)n1,> 100 µM
3,Sc1ccccc1S,> 100 µM
4,CN(C)c1[se]nc2c1c(=O)n(C)c(=O)n2C,> 100 µM

# Tested on: SNB-75 CNS
# Assay: growth of human tumour cells (NCI), 48 h
row,SMILES,TGI
1,CC1=C(C(=O)Nc2ccc([N+](=O)[O-])cc2)C(c2cccc([N+](=O)[O-])c2)C(C(=O)Nc2ccc([N+](=O)[O-])cc2)=C(C)N1,> 100 µM
2,COc1ccc2c(c1)C1C(CO2)C(c2ccccc2)=NN1c1ccccc1 (stereo unspecified),9.67 µM
3,CCOC(=O)c1csc(CCCCCCc2nc(C(=O)OCC)cs2)n1,70.4 µM
4,CN(C)c1[se]nc2c1c(=O)n(C)c(=O)n2C,> 100 µM

# Tested on: SNB-78 CNS
# Assay: growth of human tumour cells (NCI), 48 h
row,SMILES,TGI
1,CC1=C(C(=O)Nc2ccc([N+](=O)[O-])cc2)C(c2cccc([N+](=O)[O-])c2)C(C(=O)Nc2ccc([N+](=O)[O-])cc2)=C(C)N1,> 100 µM
2,COc1ccc2c(c1)C1C(CO2)C(c2ccccc2)=NN1c1ccccc1 (stereo unspecified),> 100 µM
3,CCOC(=O)c1csc(CCCCCCc2nc(C(=O)OCC)cs2)n1,> 100 µM
4,Sc1ccccc1S,> 100 µM
5,CN(C)c1[se]nc2c1c(=O)n(C)c(=O)n2C,> 100 µM

# Tested on: SR leukemia
# Assay: growth of human tumour cells (NCI), 48 h
row,SMILES,TGI
1,CCOC(=O)c1csc(CCCCCCc2nc(C(=O)OCC)cs2)n1,> 100 µM

# Tested on: SW-620 colon
# Assay: growth of human tumour cells (NCI), 48 h
row,SMILES,TGI
1,CC1=C(C(=O)Nc2ccc([N+](=O)[O-])cc2)C(c2cccc([N+](=O)[O-])c2)C(C(=O)Nc2ccc([N+](=O)[O-])cc2)=C(C)N1,> 100 µM
2,COc1ccc2c(c1)C1C(CO2)C(c2ccccc2)=NN1c1ccccc1 (stereo unspecified),> 100 µM
3,CCOC(=O)c1csc(CCCCCCc2nc(C(=O)OCC)cs2)n1,> 65.4 µM
4,Sc1ccccc1S,> 100 µM
5,CN(C)c1[se]nc2c1c(=O)n(C)c(=O)n2C,> 100 µM

# Tested on: TK-10 renal
# Assay: growth of human tumour cells (NCI), 48 h
row,SMILES,TGI
1,CC1=C(C(=O)Nc2ccc([N+](=O)[O-])cc2)C(c2cccc([N+](=O)[O-])c2)C(C(=O)Nc2ccc([N+](=O)[O-])cc2)=C(C)N1,> 100 µM
2,COc1ccc2c(c1)C1C(CO2)C(c2ccccc2)=NN1c1ccccc1 (stereo unspecified),> 100 µM
3,CCOC(=O)c1csc(CCCCCCc2nc(C(=O)OCC)cs2)n1,> 100 µM
4,Sc1ccccc1S,> 10 µM
5,CN(C)c1[se]nc2c1c(=O)n(C)c(=O)n2C,> 100 µM

# Tested on: U251 CNS
# Assay: growth of human tumour cells (NCI), 48 h
row,SMILES,TGI
1,CC1=C(C(=O)Nc2ccc([N+](=O)[O-])cc2)C(c2cccc([N+](=O)[O-])c2)C(C(=O)Nc2ccc([N+](=O)[O-])cc2)=C(C)N1,> 100 µM
2,COc1ccc2c(c1)C1C(CO2)C(c2ccccc2)=NN1c1ccccc1 (stereo unspecified),> 100 µM
3,CCOC(=O)c1csc(CCCCCCc2nc(C(=O)OCC)cs2)n1,> 59.6 µM
4,Sc1ccccc1S,> 100 µM
5,CN(C)c1[se]nc2c1c(=O)n(C)c(=O)n2C,> 100 µM

# Tested on: UACC-257 melanoma
# Assay: growth of human tumour cells (NCI), 48 h
row,SMILES,TGI
1,CC1=C(C(=O)Nc2ccc([N+](=O)[O-])cc2)C(c2cccc([N+](=O)[O-])c2)C(C(=O)Nc2ccc([N+](=O)[O-])cc2)=C(C)N1,56.1 µM
2,COc1ccc2c(c1)C1C(CO2)C(c2ccccc2)=NN1c1ccccc1 (stereo unspecified),> 100 µM
3,CCOC(=O)c1csc(CCCCCCc2nc(C(=O)OCC)cs2)n1,96.9 µM
4,CN(C)c1[se]nc2c1c(=O)n(C)c(=O)n2C,> 100 µM

# Tested on: UACC-62 melanoma
# Assay: growth of human tumour cells (NCI), 48 h
row,SMILES,TGI
1,CC1=C(C(=O)Nc2ccc([N+](=O)[O-])cc2)C(c2cccc([N+](=O)[O-])c2)C(C(=O)Nc2ccc([N+](=O)[O-])cc2)=C(C)N1,> 100 µM
2,CCOC(=O)c1csc(CCCCCCc2nc(C(=O)OCC)cs2)n1,> 100 µM
3,Sc1ccccc1S,> 100 µM
4,CN(C)c1[se]nc2c1c(=O)n(C)c(=O)n2C,> 100 µM

# Tested on: UO-31 renal
# Assay: growth of human tumour cells (NCI), 48 h
row,SMILES,TGI
1,CC1=C(C(=O)Nc2ccc([N+](=O)[O-])cc2)C(c2cccc([N+](=O)[O-])c2)C(C(=O)Nc2ccc([N+](=O)[O-])cc2)=C(C)N1,> 100 µM
2,COc1ccc2c(c1)C1C(CO2)C(c2ccccc2)=NN1c1ccccc1 (stereo unspecified),> 100 µM
3,CCOC(=O)c1csc(CCCCCCc2nc(C(=O)OCC)cs2)n1,> 100 µM
4,Sc1ccccc1S,> 10 µM
5,CN(C)c1[se]nc2c1c(=O)n(C)c(=O)n2C,> 100 µM

# Tested on: XF 498 CNS
# Assay: growth of human tumour cells (NCI), 48 h
row,SMILES,TGI
1,CC1=C(C(=O)Nc2ccc([N+](=O)[O-])cc2)C(c2cccc([N+](=O)[O-])c2)C(C(=O)Nc2ccc([N+](=O)[O-])cc2)=C(C)N1,41.3 µM
2,COc1ccc2c(c1)C1C(CO2)C(c2ccccc2)=NN1c1ccccc1 (stereo unspecified),> 100 µM
3,CCOC(=O)c1csc(CCCCCCc2nc(C(=O)OCC)cs2)n1,86.3 µM
4,Sc1ccccc1S,> 100 µM
5,CN(C)c1[se]nc2c1c(=O)n(C)c(=O)n2C,> 100 µM
